Entries after “also recorded” stand apart in the source; their conditions may differ. Read-outs that look alike come from different tables or passages of the source.
Key:
Hst2 (1-294) = Hst2 (1-294) (Saccharomyces cerevisiae, UniProt P53686); assay: High throughput screen for Hst2 effectors in the presence of nicotinamide (fluorimetric); settings: Table 3, activators, nicotinamide present
Description: High Throughput Screening (HTS). A high throughput screening protocol based on the SIRT1 Fluorimetric Activity Assay/Drug Discovery Kit was developed (BIOMOL International, Inc., Plymouth Meeting, Pa.). […] One hundred nanoliters of either a DMSO control or a compound from the small molecule screening library was added to each well by pinning. […] After 45 minutes, each plate was read on a fluorescence plate reader at an excitation wavelength of 360 nm and an emission wavelength of 460 nm. […] The fluorescence signal from each well was normalized to the DMSO controls on each 384-well plate and compared to a DMSO control population based on the following equation:
where χ is the fluorescence signal of the well, μ is the mean of the control (DMSO) population and σ is the standard deviation of the control population. […]

human SIRT3 = target: T1, human SIRT3 (Homo sapiens, UniProt Q9NTG7); assay: Inhibition assay against human SIRT3 (fluorigenic)
T1 sequence (Q9NTG7 1-399): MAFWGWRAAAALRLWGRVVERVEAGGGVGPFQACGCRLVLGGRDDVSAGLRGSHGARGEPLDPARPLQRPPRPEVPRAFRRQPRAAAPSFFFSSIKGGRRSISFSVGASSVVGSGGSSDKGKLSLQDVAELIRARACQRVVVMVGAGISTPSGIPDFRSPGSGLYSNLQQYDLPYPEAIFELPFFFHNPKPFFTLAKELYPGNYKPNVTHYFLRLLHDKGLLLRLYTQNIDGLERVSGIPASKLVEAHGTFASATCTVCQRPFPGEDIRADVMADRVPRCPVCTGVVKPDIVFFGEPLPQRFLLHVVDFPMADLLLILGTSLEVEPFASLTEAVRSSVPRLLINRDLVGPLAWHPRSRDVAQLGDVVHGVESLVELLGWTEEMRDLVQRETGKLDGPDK
Description: (§3) Human recombinant SIRT3 was purchased from Enzo Life Sciences.
(§4) Inhibition Assay Against Human SIRT2 and SIRT3. […] Two independent measurements were performed for each compound and the average and standard deviation are reported.

human SIRT2 = target: T2, human SIRT2 (Homo sapiens, UniProt Q8IXJ6); assay: Inhibition assay against human SIRT2 (fluorigenic); settings: for remaining activity at 100 µM: read-out: percent of residual enzyme activity, SIRT2
T2 sequence (Q8IXJ6 1-352 isoform Q8IXJ6-2): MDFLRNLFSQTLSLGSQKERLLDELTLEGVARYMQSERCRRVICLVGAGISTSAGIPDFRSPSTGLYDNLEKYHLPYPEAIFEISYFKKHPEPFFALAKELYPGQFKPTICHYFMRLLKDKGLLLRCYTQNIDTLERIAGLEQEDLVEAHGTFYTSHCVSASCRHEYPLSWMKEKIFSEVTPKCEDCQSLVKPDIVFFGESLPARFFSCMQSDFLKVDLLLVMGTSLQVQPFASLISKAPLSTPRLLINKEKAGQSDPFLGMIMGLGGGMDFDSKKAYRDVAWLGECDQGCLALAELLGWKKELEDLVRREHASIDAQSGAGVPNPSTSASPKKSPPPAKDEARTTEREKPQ
Description: as §3, §4

Hst2 [1] = target: T3, Hst2 (Saccharomyces cerevisiae, UniProt P53686); assay: Competition assay (inhibition mode versus NAD+ and acetyl-lysine substrate); assay type: biochemical
T3 sequence (P53686 1-294): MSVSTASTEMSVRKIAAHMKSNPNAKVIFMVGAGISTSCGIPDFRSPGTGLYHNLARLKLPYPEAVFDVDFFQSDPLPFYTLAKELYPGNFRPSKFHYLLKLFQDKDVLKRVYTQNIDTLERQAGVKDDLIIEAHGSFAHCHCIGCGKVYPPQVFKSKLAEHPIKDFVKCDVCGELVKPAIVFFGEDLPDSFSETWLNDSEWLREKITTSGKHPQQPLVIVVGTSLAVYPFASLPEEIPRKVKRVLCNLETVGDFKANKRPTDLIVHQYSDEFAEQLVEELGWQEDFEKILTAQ
Description: Competition Assay. […] The fluorigenic assay described above was used with a fixed enzyme concentration of 1 μM. When competition with NAD^+ was being tested, the FLUOR DE LYS-SIRT1 deacetylase substrate was held at a constant concentration of 100 μM and the NAD^+ was titrated from ⅓-5× KmNAD+ (5-80 μM). […] The inhibitors were titrated from ˜½-several times their estimated Ki as indicated. The reaction time was 15 minutes, and each condition was tested in duplicate. The Km, kcat and kcat/Km values were determined by direct fit of the data in SIGMAPLOT (Systat Software, Point Richmond, Calif.) to the Michealis-Menten equation. The Ki and Kis (the slope and intercept inhibition constants, respectively) and the competition type were also determined by a direct fit in SIGMAPLOT to both partial and full competitive, noncompetitive, uncompetitive and mixed competition models. Best-fit models were determined by several statistical methods including R^2, AICs and Sy.x as well as empirical evaluation of α and β values.
To determine the mechanism of inhibition of the compounds identified by HTS and to gain insight as to where these compounds may bind to the enzyme, inhibition modes were determined by varying each of the substrates with the other maintained at a fixed, saturating concentration (Table 11).

full-length human SIRT1 = target: T4, full-length human SIRT1 (Homo sapiens, UniProt Q96EB6); assay: IC50 determination, fluorigenic deacetylase assay, FL SIRT1; settings: read-out: SIRT1 IC50; Table 5; 240 μM NAD+, 200 μM substrate, 1 μM FL SIRT1, 15 min
T4 sequence (Q96EB6 1-747): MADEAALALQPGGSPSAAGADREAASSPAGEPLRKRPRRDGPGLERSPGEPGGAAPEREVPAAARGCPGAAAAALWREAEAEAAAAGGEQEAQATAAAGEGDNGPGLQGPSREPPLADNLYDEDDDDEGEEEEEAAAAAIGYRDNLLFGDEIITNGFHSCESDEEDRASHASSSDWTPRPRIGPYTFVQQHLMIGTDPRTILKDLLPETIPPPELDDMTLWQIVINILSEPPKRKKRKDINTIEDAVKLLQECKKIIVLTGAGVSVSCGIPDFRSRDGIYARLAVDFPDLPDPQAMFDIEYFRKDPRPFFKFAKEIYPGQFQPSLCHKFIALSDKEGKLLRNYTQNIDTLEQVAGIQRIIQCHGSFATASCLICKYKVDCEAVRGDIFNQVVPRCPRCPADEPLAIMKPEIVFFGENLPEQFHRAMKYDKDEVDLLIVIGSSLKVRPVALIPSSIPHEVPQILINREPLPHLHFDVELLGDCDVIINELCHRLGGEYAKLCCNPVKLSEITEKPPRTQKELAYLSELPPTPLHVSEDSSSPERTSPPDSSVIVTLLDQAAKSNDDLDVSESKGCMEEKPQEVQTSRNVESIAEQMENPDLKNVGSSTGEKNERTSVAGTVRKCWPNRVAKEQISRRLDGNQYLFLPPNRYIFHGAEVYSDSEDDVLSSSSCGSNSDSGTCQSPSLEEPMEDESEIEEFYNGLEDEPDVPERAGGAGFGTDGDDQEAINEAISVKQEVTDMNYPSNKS
Description: Cells were harvested and lysed by sonication in buffer containing 50 mM Tris, pH 7.5, 200 mM NaCl, 5 mM imidizole, 10 mM β-mercaptoethanol (BME) and 0.1 mg/mL PMSF. Soluble FL SIRT1 was purified by Ni-NTA (Qiagen, Valencia, Calif.) in a buffer containing 50 mM Tris, pH 7.5, 300 mM NaCl, 10 mM BME, 5% glycerol and 30-600 mM imidizole followed by SUPERDEX-200 gel filtration in buffer containing 50 mM Tris, pH 7.5, 150 mM NaCl, and 10 mM BME. FL SIRT1 eluted between the 670 kDa and 158 kDa globular protein standards. Since SIRT1 is known to aggregate after several days at 4° C., the protein was aliquoted and frozen at −80° C. for use in fluorigenic assays.
(§5) IC50 Determination. […] The dose-response curves were then fit to one-site competition or sigmoidal-dose response curves as appropriate in [sequence] PRISM (GraphPad Software, La Jolla, Calif.) and the IC50 was determined. Three independent IC50 measurements were performed for each compound and the average and standard deviation are reported.

Hst2 [2] = target: T3, Hst2
Description: as §5
(§6) The resulting deacetylase activity for the three experiments was averaged and reported as a percentage relative to control wells containing no inhibitor.

Hst2 [3] = target: T3, Hst2; assay: SAR analysis, fluorigenic assay at 50 and 500 μM; assay type: biochemical; settings: Table 7, 500 μM compound, relative to control; read-out: % Activity 500 μM
Description: Structure Activity Relationship (SAR) Analysis.

wild-type yHst2 = target: T5, wild-type yHst2 (Saccharomyces cerevisiae, UniProt P53686); assay: Kinetic assay, deacetylase fluorescent activity assay kit, wild-type enzyme; assay type: biochemical; settings: read-out: Km for NAD+
T5 construct: The 64-residue C-terminal deletion construct of yHst2 (residues 1-294) and point mutants were purified; His6 (N); made in house
T5 sequence (P53686 1-294): as the sequence (P53686 1-294) above
Description: (§1) Kinetic Assays. […] Data taken in triplicate were fitted to the equation l/v=(Km/Vmax)(1/[S])+1/Vmax, using a root mean least squares approach in the form of a double reciprocal Lineweaver-Burk plot where the x-intercept is equal to −l/Km. […] The slopes of the Dixon Plot were replotted versus 1/[NAD^+], and the slope of the corresponding line was set equal to Km/(Vmax*Ki), in order to calculate Ki.

yHst2 I117F mutant = target: T6, yHst2 I117F mutant (Saccharomyces cerevisiae, UniProt P53686, I117F); assay: Kinetic assay, deacetylase fluorescent activity assay kit, I117F mutant; assay type: biochemical
T6 construct: Point mutations in yHst2 (1-294) were generated from the pRSET-A plasmid; His6 (N); made in house
T6 sequence (P53686 1-294 I117F): as the sequence (P53686 1-294) above, with I117F counted along it
Description: (§2) Protein Preparation, Crystallization and Structure Determination.
as §1

yHst2 D118N mutant = target: T7, yHst2 D118N mutant (Saccharomyces cerevisiae, UniProt P53686, D118N); assay: Kinetic assay, deacetylase fluorescent activity assay kit, D118N mutant; assay type: biochemical
T7 construct: Point mutations in yHst2 (1-294) were generated from the pRSET-A plasmid; His6 (N); made in house
T7 sequence (P53686 1-294 D118N): as the sequence (P53686 1-294) above, with D118N counted along it
Description: as §2, §1

yHst2 I117V mutant = target: T8, yHst2 I117V mutant (Saccharomyces cerevisiae, UniProt P53686, I117V); assay: Kinetic assay, deacetylase fluorescent activity assay kit, I117V mutant; assay type: biochemical
T8 construct: Point mutations in yHst2 (1-294) were generated from the pRSET-A plasmid; His6 (N); made in house
T8 sequence (P53686 1-294 I117V): as the sequence (P53686 1-294) above, with I117V counted along it
Description: as §2, §1

Hst2 [4] = target: T3, Hst2; assay: Reversibility assay; assay type: biochemical; settings: preincubation at 10x IC50, 100-fold dilution
Description: Reversibility Assay. Each of the inhibitor scaffolds identified in the HTS was tested to determine whether they were reversible, slowly reversible or irreversible inhibitors of Hst2. The reversibility of each compound was identified using the fluorigenic assay described herein.
To aid in the determination of the mechanism of inhibition for each newly identified inhibitor and to assay reversibly of inhibitor binding to the enzyme, it was tested whether or not inhibitor binding to the Sir2 enzyme was rapidly reversible, slowly reversible or irreversible. […] Then, the enzyme was diluted 100-fold into reaction wells with both substrates, and the amount of product formation over time was monitored (FIG. 2).

trypsin = assay: Control for inhibition of the trypsin assay developer; assay type: biochemical
Description: These compounds were not pursued further.

Hst2 [5] = target: T3, Hst2; assay: IC50 determination, fluorigenic deacetylase assay, Hst2
Description: as §5, §6

[6] = read-out: Hst2 IC50, Table 5, 160 μM NAD+, 100 μM substrate, 1 μM Hst2, 15 min

Chain of Hst2 (1-294) (P53686 1-294): as the sequence (P53686 1-294) above

CC1(C)CC(=O)C2=C(C1)NC1=C(C(=O)CC(C)(C)C1)C2c1cccc(F)c1
Fold Activation (Hst2 (1-294)): 2.2 Fold

COCC#CC1c2cc(O)c(OC)cc2CCN1C (stereo not shown) [Compound 15a, 6-Methoxy-1-(3-methoxy-prop-1-ynyl)-2-methyl-1,2,3,4-tetrahydro-isoquinolin-7-ol]
inhibitory activity against human SIRT3 (in words) (human SIRT3; 50 or 100 μM compound): only weak inhibitory activity | remaining activity at 100 µM (human SIRT3; read-out: percent of residual enzyme activity, SIRT3): 96.4 ± 0.5% | inhibitory activity against human SIRT2 (in words) (human SIRT2; 50 or 100 μM compound): only weak inhibitory activity | remaining activity at 100 µM (human SIRT2): 92.1 ± 1.5% | kcat (Hst2 [1]; substrate NAD+ varied): 0.0137 ± 0.00233 s⁻¹ | Inhibition Mechanism (Hst2 [1]; substrate NAD+ varied, acetyl-lysine substrate 100 μM): fully mixed | kcat (Hst2 [1]; substrate acetyl-lysine varied): 0.0167 ± 0.0033 s⁻¹ | Inhibition Mechanism (Hst2 [1]; substrate acetyl-lysine varied, NAD+ 160 μM): fully non-competitive; also recorded: NC (full) | α (mixed inhibition model) (Hst2 [1]; with respect to NAD+): 2.6 | IC50 (full-length human SIRT1): 570 ± 200 µM | IC50 lower than that of compound 15b (Hst2 [2]): about 2 fold | activity at 500 µM (Hst2 [3]): 5%

NC(=O)c1ccc[n+]([C@@H]2O[C@H](COP(=O)([O-])OP(=O)(O)OC[C@H]3O[C@@H](n4cnc5c(N)ncnc54)[C@H](O)[C@@H]3O)[C@@H](O)[C@H]2O)c1 [NAD^+]
Km (wild-type yHst2): 16.1 µM | increased Km for NAD+ compared to wild-type enzyme (yHst2 I117F mutant; I117F mutant versus wild-type): less than 2 fold | Km (yHst2 I117F mutant; I117F mutant, read-out: Km for NAD+): 25.8 µM | increase of Km for NAD+ over wild-type (yHst2 D118N mutant; D118N mutant versus wild-type): more than 28 fold | Km (yHst2 D118N mutant; D118N mutant, read-out: apparent Km for NAD+): 454 µM | Km (yHst2 I117V mutant; I117V mutant, read-out: Km for NAD+): 25.5 µM

NC(=O)c1cccnc1 [Nicotinamide (1), Nicotinamide, reference compound]
remaining activity at 100 µM (human SIRT2): 26 ± 1.4% | slope of progress curve with respect to the enzyme control (Hst2 [4]): 30% | increase of Kii for nicotinamide over wild-type enzyme (yHst2 I117F mutant; I117F mutant versus wild-type): ~6 fold | decrease of Kii for nicotinamide over wild-type enzyme (yHst2 I117V mutant; I117V mutant versus wild-type): ~2.5 fold

(Pyrido[2,3-a]5-nitropyrrolo[3,4-c]carbazole-5,7(6H)-dione) (cyclopentadienyl)monocarbonyl ruthenium [Compound 16b]
inhibition of trypsin (trypsin): did not inhibit trypsin | IC50 (Hst2 [5]; Table 4, Hst2): 24 ± 16 µM | IC50 values (range in words) (Hst2 [5]; Table 5): low micromolar | IC50 (Hst2 [5]; [6]): 24 ± 16 µM

Pyrido[2,3-a]4-nitropyrrolo[3,4-c]carbazole-5,7(6H)-dione) (cyclopentadienyl) monocarbonyl ruthenium [Compound 16a]
inhibition of trypsin (trypsin): did not inhibit trypsin | IC50 (Hst2 [5]; Table 4, Hst2): 36 ± 12 µM | IC50 values (range in words) (Hst2 [5]; Table 5): low micromolar | IC50 (Hst2 [5]; [6]): 36 ± 12 µM

— patent US20090326007A1, “Compounds and methods for modulating sir2 protein activity” (priority 2007, published 2009)
